We go through 90 compounds from a melting point compilation (Tetko et al.; mined from patent text by program, amines drawn as free bases though some values may be those of a salt).

As a reminder, the melting point is the temperature of the solid-liquid transition.

For the compound `CCCCc1nc2c(N)nc3cc(-c4ccccc4)ccc3c2n1CC(C)C`, the melting point is above 250 °C. `CCC(=O)C(C(=O)OC)C(C(=O)c1ccccc1)c1ccc(F)cc1` (stereo not given) had a melting point of 104 to 109 °C. The figure for `CCCC(SCC(=O)O)c1ccc2c(c1)OCO2` (stereo not given) is 59 to 61 °C. Compound `CN(C)c1ccc(NC(=O)Nc2ccc3c(ccn3C)c2)cn1` displayed a melting point of 220 to 226 °C. The figure for `CS(=O)(=O)c1ccc(C2=C(c3ccccc3)CN(C3CCCCC3)C2=O)cc1` is 183 to 185 °C; for `OC1(c2ccc(Cl)c(Cl)c2)CCNCC1` it is 144 to 146 °C. Under `CCCN(CCCC12CC3CC(CC(C3)C1)C2)C(=O)NCc1ccncc1` stands 96 to 98 °C; under `CC(=O)NC(Cc1csc2ccccc12)C(=O)CCc1cc(C(F)(F)F)cc(C(F)(F)F)c1` (stereo not given), 83 to 84 °C. With `CCOC(=O)C(C#N)=CNc1ccc([N+](=O)[O-])cc1`, the melting point is 227 to 228 °C. In turn, `N#Cc1c(-c2ccc(OCc3ccccc3)cc2)cn(-c2cccc(OCCCl)c2)c1N` displayed a melting point of 77 to 79 °C.

`Clc1ccc(OCc2ccccc2)c(Br)c1` registered a melting point of 49 to 50.5 °C. The figure for `CCCCc1nc(C(O)C(C)(C)C)c(C(N)=O)n1Cc1ccc(-c2ccccc2-c2nnn[nH]2)cc1` (stereo not given) is 157 to 160 °C; for `CC(C)(C)CNc1cc(Cl)nc(NC(C)(C)C)n1` it is 110 to 111 °C; for `COc1ccc(N(N=Cc2ccccc2)C(=O)c2ccccc2)cc1` it is 151 to 153 °C.

`CSc1ccc(CC(=O)NC(NC(Cc2ccccc2C)=NC#N)C(C)(C)C)cc1` (stereo not given): the melting point is 201 to 202 °C. Under `CCCn1c2ccccc2c2c3c(nc(C)c21)CC(C)(C)CC3=O` stands 123 to 125 °C; under `CSc1ccc(C(=O)O)cc1OC1CCCC1`, 158 to 160 °C; under `COc1ccc(-n2nnnc2C(F)(F)F)cc1C=O`, 117 °C. Take `COc1cc(NC(NC(C)C(C)(C)C)=C(C#N)S(C)(=O)=O)cc(C(F)(F)F)c1` (stereo not given): the melting point lay in the range of 110 to 113 °C. Under `COC(=O)COc1ccc(Cn2c(-c3ccc(C(F)(F)F)cc3)c(C)c3cc(OCc4ccccc4)ccc32)cc1` stands 221 °C; under `NC(=O)c1[nH]c2ccccc2c1-c1ccc(NS(=O)(=O)c2cccc(Cl)c2Cl)cc1`, above 260 °C. For the compound `COc1ccc(Cn2ncc3c4c(cnc32)C(=O)NC4=O)cc1`, the melting point lay within 196 to 197 °C. `CC(=O)c1cccc(NC(=O)C=C(C)Cl)c1` gave a melting point of 152 °C.

As for `CCOC(=O)Cc1ccc2c(c1)C(=O)c1cc(Cl)ccc1CS2`, the melting point lay within 68 to 71 °C. `O=c1c2cccnc2c(-c2cccc([N+](=O)[O-])c2)nn1-c1ccccc1` had a melting point of 167 °C. Compound `CCCN1C(=O)N2C(=NCC2c2ccccc2)c2[nH]cnc21` (stereo not given) showed a melting point of 258 to 264 °C. Take `COC(=O)c1nn(C)nc1CO`: the melting point is 112 to 113 °C. The figure for `CCOC(=O)C(C)=Cc1cn(-c2cccnc2)c2ccccc12` is 97 to 99 °C. In the case of `O[C@@H]1CCN(c2ccc3nnn(Cc4ccc5ncccc5c4)c3n2)C1`, the melting point lay in the range of 167 to 169 °C. The figure for `CN(C)CCOc1cccc2cc(C(=O)Nc3ccccc3N)oc12` is 108 to 118 °C; for `O=C(O)c1ccc(OCCNC(=O)C2Cc3ccccc3N2S(=O)(=O)c2ccc(-c3ccc(F)cc3Cl)cc2)nc1` (stereo not given) it is 88 to 98 °C. `CC(C)OC(=O)c1nc(Cl)c(-c2c(F)cc(F)cc2F)c(N[C@@H](C)C(F)(F)F)n1` showed a melting point of 146 to 147 °C.

Compound `CCOC(=O)[C@@H]1Cc2ccccc2N1C(=O)CC[C@@H](NC(=O)OCc1ccccc1)C(=O)OCc1ccccc1` came in with a melting point of 114 to 116 °C. The figure for `O=C(O)CCCCCCCNS(=O)(=O)c1ccc(Cl)cc1` is 122 to 124 °C; for `CCCOC(N)=C(C#N)C(N)=S` it is 174 °C; for `Cc1ccc(-c2c(Cl)ncnc2OCCO)cc1` it is 62 to 64 °C.

In the case of `COc1ccc(C2=C(c3ccc(S(N)(=O)=O)cc3)CCC2)cc1Cl`, the melting point fell in the range of 179 to 180 °C. In turn, `CCOC(=O)c1c(C)nn2ccc3c(c12)CCO3` showed a melting point of 173 to 174 °C. Compound `ICc1ccc2c(c1)OCO2` came in with a melting point of 51 °C.

Turning to `CCOc1nn(Cc2ccc(OCc3ccc4ccccc4n3)nc2)cc1CCC(=O)O`, the melting point was in the range of 133 to 134 °C. Under `CNC(=O)c1ccc(F)c2c1CC(N(CCc1c[nH]c3ccc(F)cc13)C1CCC1)CO2` (stereo not given) stands 131 °C; under `Cc1c(Br)ccc(O)c1C(=O)O`, 163 to 165 °C; under `O=[N+]([O-])N=C1NC(O)CN1Cc1ccc(Cl)nc1` (stereo not given), 170 °C. The figure for `c1cc2c(cc1NC1=NCCN1)CCC2` is 41 to 42 °C.

`[N-]=[N+]=NC1(c2nc(N)nc(N)n2)C=CC(c2ccccc2)=CC1` (stereo not given) displayed a melting point of 230 °C. Regarding `Cc1c(C)c2ccc(OCCCCN3CCN(c4cccc(Cl)c4Cl)CC3)nc2[nH]c1=O`, the melting point was in the range of 161 to 163 °C. The figure for `CCCCCCCCCCOc1ccc(-c2ccc(CCC(C)O)cc2)cc1` (single isomer, unassigned; (+)) is 87 to 89 °C; for `CCc1cc2c(NCc3ccc4c(c3)OCO4)nc(Cl)nc2s1` it is 148 °C; for `CCOC(=O)c1ccc(-c2cnc3c(c2)N(Cc2cc(F)ccc2F)CCN3)cc1` it is 173 to 174 °C. The figure for `COc1cc(C(C)C)c(Oc2cnc(NC(CO)CO)nc2N)cc1I` is 158 to 159 °C.

As for `COc1ccccc1NC(=O)Nc1ccc2c(c1)CCN(C(=O)Nc1ccc(OCCO)cc1Cl)C2`, the melting point fell in the range of 130 to 135 °C. Under `CC1(C)OCC(C(O)CNC(=O)CS(=O)(=O)Nc2ccc(F)c(C(F)(F)F)c2)O1` (stereo not given) stands 144 to 146 °C; under `Cc1ccc(N2CCCN(c3ccnc4sc(C(N)=O)c(N)c34)CC2)nc1`, 205 to 208 °C; under `CCCc1nc(Br)c(C(=O)O)n1Cc1ccc(-c2ccccc2S(=O)(=O)NC(=O)NCc2ccccc2)cc1`, 128 °C.

On to `COc1cccc2c1c(N1CCOCC1)nc1c(-c3noc(C4CC4)n3)ncn12`, for which the melting point was in the range of 227 to 228 °C. The figure for `COc1ccc2nccc(NC(=O)N3CCN(CC(=O)c4cnc5ccccc5n4)CC3)c2n1` is 167 to 169 °C. Under `CCOC(=O)C1Cc2c(c(Cl)cc3c(-c4ccccc4)noc23)O1` (stereo not given) stands 123 to 125 °C; under `CCOCc1nc2c(N)nc3cc(-c4cncc(CO)c4)ccc3c2n1CC(C)(C)O`, 188 to 190 °C. The figure for `O=C1NCC(COc2ccccc2)O1` (stereo not given) is 108 to 109 °C. `CC(C)C[C@H](NC(=O)CCOc1ccccc1)C(=O)N[C@@H](C(C)C)[C@@H](O)c1c(-c2ccccc2)c1=O` came in with a melting point of 92 to 95 °C. In turn, `N#Cc1cn(-c2cccc(F)c2)c(=O)[nH]c1=O` displayed a melting point of 246 °C. Regarding `O=S1(=O)c2cccc3cccc(c23)N1CCCN1CCN(c2ccc(Br)cc2)CC1`, the melting point is 149 °C. In turn, `O=C(COc1ccccc1)N[C@@H](Cc1ccc(OCCc2coc(-c3ccccc3)n2)cc1)C(=O)O` had a melting point of 94 to 97 °C. In the case of `COc1cc(C=Cc2ccccc2)ccc1O`, the melting point was in the range of 132 to 134 °C. Compound `COC(=O)c1c(-c2ccccc2Cl)c2cc(C)c(C)cc2[nH]c1=O` gave a melting point of 288 to 289 °C.

`CCC(CC)(CCc1ccc(Cl)cc1)NC(=O)n1nc(N(C)C)n(N=C(C)CC(C)C)c1=O` had a melting point of 121 °C. The compound `O=C(O)C=C1SC(=Nc2ccc(Cl)c(Cl)c2)N(c2ccc(Cl)c(Cl)c2)C1=O` came in with a melting point of 221 to 222 °C. The figure for `C#CCOc1c(-c2ccccc2)c(=O)[nH]c2cc(Cl)ccc12` is 183 to 185 °C.

With `O=C(O)C(=O)c1ccc(-c2ccc(Cl)cc2)s1`, the melting point was in the range of 339 to 343 °C. The figure for `C=CC(=O)NC(=O)NCCCl` is 156 to 158 °C; for `COc1ccc(CN2C(=O)C(O)(c3cc(CO)ccc3Cl)c3cc(Cl)ccc32)c(OC)c1` (stereo not given) it is 107 °C; for `CC(C)NCC(O)COc1cccc2c1CC(=O)N2` (stereo not given) it is 173 to 175 °C. The figure for `Cc1cccc(Nc2cc(Cl)nc(SCC(N)=O)n2)c1C` is 188 to 191 °C.

For `COc1ccc(Cc2nc3cccc(CCCO)c3o2)cc1OC`, the melting point lay within 95 to 97 °C. The compound `CN(CCN(C)CCN1C(=O)c2cccc3cc4ccccc4c(c23)C1=O)CCN1C(=O)c2cccc3cc4ccccc4c(c23)C1=O` showed a melting point of 255 °C. `ON=C1Cc2ccccc2C=Cc2ccccc21` gave a melting point of 191 to 192 °C. The figure for `Nc1ncnc2c1ncn2Cc1oc2ccc(Br)cc2c(=O)c1-c1ccccc1` is 207 to 209 °C. As for `CCOCc1nc2c(N)nc3cc(OCc4cccc(C)c4)ccc3c2n1CC(C)C`, the melting point was 207 to 208 °C.

Take `CCOc1cc2cc(COC(C)=O)c(COC(C)=O)c(-c3ccncc3)c2cc1OCC`: the melting point is 115 to 116 °C.

With `Cc1nc2c(N)nc3cccnc3c2n1CC1(O)CCN(S(C)(=O)=O)CC1`, the melting point was above 255 °C.

Compound `NP(N)(=S)N1CCCCC1` came in with a melting point of 97 to 102 °C. The figure for `N=C(N)c1ccc2cc(OC(=O)C3CC3)ccc2c1` is 214 to 217 °C.

Take `COc1cc(CCCC2SC(=O)NC2=O)ccc1OCc1csc(/C=C/c2ccccc2)n1` (stereo not given): the melting point lay within 161 to 162 °C. Under `CCOc1c(C=O)sc(NC(C)=O)c1C#N` stands 276 to 277 °C. The compound `Cc1cc(Br)c(Cl)c(Cl)c1N` had a melting point of 66 to 68 °C. With `O=C(NO)c1ccccn1`, the melting point was in the range of 58 to 68 °C. Under `CCOC(=O)CCn1c(=O)c2ccccc2n(CCCCCl)c1=O` stands 71 to 72 °C; under `CCCCCCC(=N)NC(=S)Nc1ccc(OC)cc1`, 70 to 72 °C; under `CCOC(=O)c1cc2cc(OCCCOC)cc(N)c2[nH]1`, 139 to 140 °C.

Turning to `COc1ccc(CC(=O)Cc2c(OC)cc(OC)c(CC=C(C)C)c2OCC(=O)O)cc1`, the melting point is 102 °C.
